Test results reported in patent US4829073A, “Thiadiazole oxides for treating gastrointestinal motility disorders” (Bristol-Myers Company, priority 1988, dated 1989).
Where two headings read alike, the source gives them in different places.

Columns and labels:
[1] = tested on: guinea pig ileum (longitudinal muscle); assay: Electrically stimulated isolated guinea pig ileum; assay type: cell-based; conditions: Cavia porcellus
Description: (§1) Two classical pharmacological preparations, the field stimulated guinea pig ileum and field stimulated rat fundic strip, are utilized to assess gastroprokinetic activity in vitro.
A modification of the procedure described by W. D. M. Paton, J. Physiol. (Lond), 127, 40-41P (1955). Segments of the preterminal ileal tissue, 3-4 cm in length, are mounted in a 20 ml tissue bath. The tissues are perfused at 37° C. with a modified Krebs solution and continuously gassed with 95%O2 -5% CO2. The solution is prepared with millipore water and consists of (mM/L): NaCl 116, KCl 5, CaCl2 2.5, KH2 PO4 1.2, MgSO4.7H2 O 0.5, NaHCO3 25 and Glucose 11.1.
A force displacement transducer is attached to each tissue and the resting tension adjusted to 1.0 g. The tissues are allowed to equilibrate for one hour, with washes every twenty minutes, after the stimulator is engaged or until twitch height remains stable.
Dose response curves for test compounds are established by adding single doses of the material in increasing increments until a maximal effect is achieved. Compounds are administered at volumes ranging from 0.2 to 0.6 ml to give final bath concentrations of 0.1 μM thru 100 μM. The test materials remain in contact with the tissue for 2 to 3 minutes, until the peak effect is achieved, before thorough washing with Kreb's solution. […]

rat fundic strip = assay: Electrically stimulated isolated rat stomach fundus; assay type: cell-based
Description: as §1
The rat fundic strip is prepared according to the method described by J. R. Vane, Brit. J. Pharmacol., 12, 344-349 (1957). For this preparation, strips are made by removing the fundal end of the stomach and slitting it open to form a sheet. Small cuts are made transversing the longitudinal muscle to produce two strips 3-4 cm in length. The tissues are mounted in a 20 ml organ bath containing Kreb's solution at 37° C. and are oxygenated with 95% O2 -5% CO2. Resting tension is adjusted to 1.0 g. Contractions are recorded by means of a force displacement transducer and a Beckman Dynograph Type R.
Once a consistent response to electrical field stimulation is established, varying amounts of a test compound are added to the bath. All compounds are administered three minutes prior to electrical stimulation at volumes of 0.2 ml to 0.6 ml for final bath concentrations of 0.1 μM thru 100 μM. Each tissue is thoroughly washed between each dose. A dose response curve is achieved by measuring the effect of increasing dose levels of test materials on the tissue contraction due to electrical field stimulation.

rat gastric emptying = assay: In vivo small animal gastroprokinetic activity: rat gastric emptying; set-up: species or system male Sprague-Dawley rats; conditions: normal rats; for ED50: Rattus norvegicus
Description: IN VIVO SMALL ANIMAL GASTROPROKINETIC ACTIVITY The method used to assess rat gastric emptying is a modification of the procedures described by D. A. Droppleman et al., Journal of Pharmacological Methods, 4, 227-230 (1980). Test compounds (0.3 to 30 mg/kg in 1 ml/kg vehicle) are administered either orally or subcutaneously to male, Sprague-Dawley rats (160-180 g) that were fasted overnight. The test animals receive 2.5 ml of a freshly made milk plus ground rat chow meal by oral intubation, thirty or fifteen minutes following oral or subcutaneous administration, respectively. Rats are sacrificed 25 minutes following the test meal, and the stomachs are quickly excised. Each stomach containing the remaining meal is weighed intact on an analytical balance. To empty the contents before reweighing, each stomach is cut open, rinsed thoroughly and then blotted dry. The difference in weights indicates the amount of meal remaining in the stomach. The amount of meal retained is calculated as a percent of the total meal weight administered.

[2] = tested on: opossum lower esophageal sphincter (LES); assay: Lower esophageal sphincter pressure in the anesthetized opossum; assay type: in vivo
From the text: This procedure measures the effect of the test compounds on the opossum lower esophageal sphincter (LES) which closely resembles the human sphincter. In order to test the effects of compounds on LES resting pressure, a small tube perfused with water at a constant flow rate is passed through the anesthetized opossum esophagus and water pressure in the tube is monitored. The method is similar to that described by R. Goyal et al., Gastroenterology, 71, 62-67 (1976). An increase in esophageal tone is measured as an increase in pressure and reported as a percent increase of the control determination. The compound of Example 1 was given as a single bolus dose of 10 mg/kg I.V. in four opossums.

[3] = tested on: circular smooth muscle contractile activity of the antral and duodenal portion of the stomach; assay: Gastric contractile activity in the anesthetized dog; assay type: in vivo, Male Beagle Dogs; conditions: I.V. cumulative dosing 0.01 to 10 mg/kg
Description: The effect of test compounds on circular smooth muscle contractile activity of the antral and duodenal portion of the stomach are measured by strain gauge arches sewn on the serosal surface similar to the procedure described by […] et al., Digestion, 28, 205-209 (1983). Male Beagle Dogs, weighing 8 to 14 kg, are fasted overnight and then anesthetized with pentothal (thiopental sodium), 20 mg/kg and maintained with I.V. alpha-chloralose (100 mg/ml in PEG 400, diluted 1:1 with saline immediately before use) as needed, usually 100 mg/dose. The trachea is intubated for respiratory assistance if needed, and the right femoral artery and vein are cannulated to monitor blood pressure and administer I.V. solutions, respectively. The stomach and intestine are exposed by a midline incision, and a Walton-Brodie adjustable strain gauge arch is sewn on the ventral surface of the antrum of the stomach, 3-5 cm proximal to the pylorus. The arch is oriented to respond to contractions of the circular muscle, and the initial resting tension is set at 25 grams by adjusting the length of the arch. The preparation is allowed to stabilize for 1 to 2 hours. Fifteen minutes after observation of migrating motor complex phase III activity, test compounds are given every 10 minutes in a cumulative dosing manner beginning at 0.01 mg/kg to 10 mg/kg. The test compounds are dissolved in saline at concentrations that are dependent on the weight of each animal so that a constant volume will be administered at each dose level. […] The stomach contractions, the cumulative grams of tension developed by the stomach contractions, EKG, heart rate, blood pressure, and any additional contractile and/or electrical activities are recorded on a Beckman Dynograph. The results are expressed as the increased tension developed by the smooth muscles in response to the administration of test compound.

[4] = tested on: gastric emptying of a solid meal; assay: Gastric emptying of solid meal in conscious dogs; assay type: in vivo, beagle dogs; conditions: for gastric half emptying time (T1/2) of a solid meal: control 208 ± 34, *P < .05; for half emptying time (t1/2) of a solid meal, in words: orally, conscious dogs
Description: Under aseptic conditions 10 beagle dogs were implanted with T-shaped titanium duodenal cannulas. The dogs were allowed to recover from surgery for 3 weeks. Each dog before the test was fasted for 16-18 hours. Water was provided ad lib. On the day of the test, the duodenal cannula was opened and the stomach contents were drained. The cannula was closed again and the dog was dosed orally with either placebo (10cc saline) or with test compound in 10cc saline. […] The dry weight of this food is 36 grams. After the dog had ingested the food the cannula was opened and an insert was placed in the cannula which drained the chyme through the cannula into a beaker. This collection was continued for 5 hours and samples were collected every thirty minutes. The chyme was filtered and dried in an oven. The dry weight collected every thirty minutes was deducted from the dry weight of the food left in the stomach. A time response curve of gastric emptying was developed and t1/2, the time taken to empty 50% of the solid meal from the stomach was determined. The t1/2 for the test compound at various doses was compared with controls. Significance of differences was determined using paired t-test.

dopamine receptors = assay: Radioligand binding to membrane receptors: dopamine
Description: (§2) Radioligand binding studies to membrane receptors were carried out to assess the potential for interaction with other receptors. […] To assess any possible cardiovascular effects a bolus injection of the test compound at various doses was administered to anesthetized dogs. Thus, the compound of Example 1, at 5 mg/kg administered I.V., had no effect on heart rate or blood pressure in three anesthetized dogs.

serotonin receptors = assay: Radioligand binding to membrane receptors: serotonin
Description: as §2

benzodiazepine receptors = assay: Radioligand binding to membrane receptors: benzodiazepine
Description: as §2

GABA receptors = assay: Radioligand binding to membrane receptors: GABA
Description: as §2

[5] = tested on: calcium channel receptors; assay: Radioligand binding to membrane receptors: calcium channel
Description: as §2

[6] = tested on: heart rate or blood pressure; assay: Cardiovascular effects in anesthetized dogs; assay type: in vivo; conditions: 5 mg/kg I.V. bolus; three anesthetized dogs
Description: as §2

[7] = 1.0 mg/kg P.O. (N = 3), 60 minutes before meal
[8] = 3.0 mg/kg P.O. (N = 3), 60 minutes before meal

Compound: Nc1n[s+]([O-])nc1NCCSCc1ccc(CN2CCCCC2)o1 (stereo not shown) [Example 1, 3-Amino-4-{2-[(5-piperidinomethyl-2-furyl)methylthio]ethylamino}-1,2,5-thiadiazole 1-oxide]
- EC50 ([1]; 95% confidence limits of 84-1629, bath concentrations 0.1 μM thru 100 μM, 37° C., read-out: computer projected EC50 value): 224 µM
- Emax ([1]; read-out: increase in contractile amplitude, maximal response over control): 37 ± 4.8%
- EC50 (rat fundic strip; bath concentrations 0.1 μM thru 100 μM, 37° C., 95% confidence limits in parentheses): 8.2 µM
- Emax (rat fundic strip; read-out: increase in contractile force, maximal response over control): 82 ± 10%
- ED50 (rat gastric emptying; sc, subcutaneous, 15 min before test meal, read-out: subcutaneous ED50 value, stomach emptying): 0.4 mg/kg
- ED50 (rat gastric emptying; oral, 30 min before test meal, read-out: oral ED50 value, stomach emptying): 2.9 mg/kg
- maximum response over control values, stomach emptying (rat gastric emptying; oral): 95±19%
- maximum response over control values, stomach emptying (rat gastric emptying; subcutaneous): 105±6%
- increase in LES pressure ([2]; 10 mg/kg I.V. single bolus, four opossums, percent increase of the control determination): 33%
- inhibition of LES pressure following the initial increase ([2]; I.V., higher doses than 10 mg/kg): no inhibition of LES pressure following the initial increase was observed
- ED50 ([3]; Canis lupus familiaris, iv, 50% of approx. 20 grams mean maximal response, read-out: ED50 value (dose necessary to achieve 10 grams of tension)): 0.24 mg/kg
- duodenal tension [3]: increased the duodenal tension dose dependently
- maximal response of developed tension [3]: 24±5 grams
- gastric half emptying time (T1/2) of a solid meal ([4]; 0.1 mg/kg P.O. (N = 3), 60 minutes before meal): 3.4 ± 0.533 h
- gastric half emptying time (T1/2) of a solid meal [4, 7]: 1.6 ± 0.233 h
- gastric half emptying time (T1/2) of a solid meal [4, 8]: 1.63 ± 0.267 h
- half emptying time (t1/2) of a solid meal, in words ([4]; 1.0 mg/kg): significantly decreased
- binding to dopamine receptors (dopamine receptors): does not bind
- binding to serotonin receptors (serotonin receptors): does not bind
- binding to benzodiazepine receptors (benzodiazepine receptors): does not bind
- binding to GABA receptors (GABA receptors): does not bind
- binding to calcium channel receptors [5]: does not bind
- effect on blood pressure [6]: no effect
- effect on heart rate [6]: no effect

Compound: NC1=NS(=O)(=O)N=C1NCCSCc1ccc(CN2CCCCC2)o1 [Example 2]
- gastric half emptying time (T1/2) of a solid meal [4, 7]: 1.83 ± 0.3 h
- half emptying time (t1/2) of a solid meal, in words ([4]; 1.0 mg/kg): significantly decreased

Compound: CCN(CC)CCNC(=O)c1cc(Cl)c(N)cc1OC [Metoclopramide, metoclopramide, reference compound]
- gastric half emptying time (T1/2) of a solid meal ([4]; 0.1 mg/kg P.O. (N = 3), 30 min before meal): 2 ± 0.35 h
- gastric half emptying time (T1/2) of a solid meal ([4]; 1.0 mg/kg P.O. (N = 3), 30 min before meal): 3.3 ± 0.233 h

Compound: CNC(=C[N+](=O)[O-])NCCSCc1ccc(CN(C)C)o1 [Ranitidine, ranitidine, reference compound]
- gastric half emptying time (T1/2) of a solid meal [4, 7]: 3.43 ± 0.517 h
- gastric half emptying time (T1/2) of a solid meal [4, 8]: 3.43 ± 0.4 h
- half emptying time (t1/2) of a solid meal, in words ([4]; at the tested doses (1.0 and 3.0 mg/kg)): ineffective
